As a reminder, the pIC50 is −log10 of the IC50, conventionally taken in molar units.

Consider two compounds from patent publication US11046954B2, “Targeted protein degradation to attenuate adoptive T-cell therapy associated adverse inflammatory responses” (Dana-Farber Cancer Institute, Inc., priority 2015, dated 2021).

Test [1] deals with downstream surrogates of KRAS signaling (e.g. pMEK and pAKT). Briefly: Immunoblot of NIH3T3 cells expressing FKBP*-KRASG12V: downstream KRAS signaling. In kind it is cell-based. The protocol:
FIG. 19 is an immunoblot of NIH3T3 cells expressing KRASG12V allele fused to FKBP* in the N-terminus or C-terminus. Cells were treated with 500 nM dFKBP7 for the indicated time. Cells were harvested and immunoblotted to measure degradation of FKBP*-KRASG12V and downstream surrogates of KRAS signaling (e.g. pMEK and pAKT).
FIG. 20 is an immunoblot of NIH3T3 cells expressing FKBP* fused to the N-terminus of KRASG12V treated with luM of the indicated dFKBP heterobifunctional compounds for 24 hours. Cells were harvested and immunoblotted to measure degradation of FKBP*-KRASG12V and downstream surrogates of KRAS signaling (e.g. pMEK and pAKT).
FIG. 21 is an immunoblot of NIH3T3 cells expressing FKBP* fused to the N-terminus of KRASG12V treated with the indicated concentrations of dFKBP13 for 24 hours. Cells were harvested and immunoblotted to measure degradation of FKBP*-KRASG12V and downstream surrogates of KRAS signaling (e.g. pMEK and pAKT).
FIG. 22 is an immunoblot of NIH3T3 cells expressing FKBP* fused to the N-terminus of KRASG12V treated with luM dFKBP13 for the indicated time. Cells were harvested and immunoblotted to measure degradation of FKBP*-KRASG12V and downstream surrogates of KRAS signaling (e.g. pMEK and pAKT).
Cells were treated with 500 nM dFKBP7 for the indicated time. Cells were harvested and immunoblotted to measure degradation of FKBP*-KRAS and downstream surrogates of KRAS signaling (e.g. pMEK and pAKT).
Western blotting of NIH3T3 cells expressing dTAG-KRASG12V were treated with 1 μM of the indicated dFKBP heterobifunctional compounds for 24 hours. Cells were harvested and immunoblotted to measure degradation of FKBP*-KRAS and downstream surrogates of KRAS signaling (e.g. pMEK and pAKT).
Western blotting of NIH3T3 cells expressing FKBP* fused to the N-terminus of KRAS treated with the indicated concentrations of dFKBP13 for 24 hours. Cells were harvested and immunoblotted to measure degradation of FKBP*-KRAS and downstream surrogates of KRAS signaling (e.g. pMEK and pAKT).
To evaluate the kinetic control of targeted degradation of dTAG-KRAS, dFKBP13 was administered by increased duration. Western blotting of NIH3T3 cells expressing FKBP* fused to the N-terminus of KRAS treated with 1 μM dFKBP13 for the indicated time. Cells were harvested and immunoblotted to measure degradation of FKBP*-KRAS and downstream surrogates of KRAS signaling (e.g. pMEK and pAKT).
On the technique in general: Immunoblotting shows a protein as a band on a membrane.

In another test the target is T1, CD19-CAR-dTAG (Homo sapiens, UniProt P62942+Q96SW2, F37V/H95N/M50V/V99I).
T1 construct: HA; expressed in transfected cells; host or cells: Jurkat T-cells (lentiviral transduction, blasticidin selection)
Put plainly: Immunoblot of Jurkat T-cells expressing CD19-CAR-dTAG. In kind it is cell-based. The following applies: for degradation of CD19-CAR-dTAG, time dependence: 250 nM, indicated time; for degradation of CD19-CAR-dTAG, dose dependence: indicated dose, 4 hours. The protocol:
Jurkat T-cells were transduced with lentivirus expressing CD19-CAR-dTAG. Cells were selected with blasticidin and expanded. Stable expression of CD19-CAR-dTAG was confirmed.
Jurkat T-cells expressing CD19-CAR-dTAG were treated with the indicated dose of dFKBP7 or dFKBP13 for 4 hours.
FIG. 15A and FIG. 15B are immunoblots of cells treated with bi-functional molecules described in the present invention. Jurkat T-cells expressing CD19-CAR-dTAG were treated with 250 nM of dFKBP7 or dFKBP13 for the indicated time.
Jurkat T-cells expressing CD19-CAR-dTAG were treated with 250 nM of dFKBP7 for 4 hours. The dFKBP7 was then removed from the Jurkat cells via washouts and the re-expression of CD19-CAR-dTAG was monitored by immunoblot analysis at the indicated time points.
FIG. 17A illustrates the experimental design to measure the ability to control the expression CD19-CAR-dTAG in T-cells upon addition and removal of dFKBP7. Jurkat cells expressing CD19-CAR-dTAG were treated with 250 nM of dFKBP7 at the indicated time points (0 and 8 hours). At 4 and 12 hours, the dFKBP7 was washed out of the Jurkat cells. At each indicated timepoint, Jurkat cells were harvest to monitor CD19-CAR-dTAG expression levels via immunoblot analysis. FIG. 17B is the resulting immunoblot from the experimental design in FIG. 17A.
Jurkat T-cells were transduced with lentivirus expressing CD19-CAR-dTAG. Cells were selected with blasticidin and expanded. Stable expression of CD19-CAR-dTAG in Jurkat cells was confirmed by anti-HA western immunoblotting of whole cell lysates.
In an effort to define the optimal concentration of bifunctional molecules to induce degradation of CD19-CAR-dTAG, degradation was measured upon treatment with increasing concentrations of dFKBP7 and dFKBP13. Jurkat T-cells were engineered to express CD19-CAR-dTAG. Cells were treated with the indicated dose of dFKBP7 or dFKBP13 for 4 hours before lysates were prepared for western immunoblot analysis.
To evaluate the kinetic control of targeted degradation of CD19-CAR-dTAG, a fixed concentration of bi-functional molecules dFKBP7 and dFKBP13 were administered at a fixed concentration for increased duration. Jurkat T-cells were engineered to express CD19-CAR-dTAG. Cells were treated with 250 nM dFKBP7 or dFKBP13 for the indicated time before lysates were prepared for immunoblot analysis.
Immunoblot illustrating the kinetics of re-expression of the CD19-CAR-dTAG protein following targeting degradation with dFKBP7. Jurkat T-cells engineered to express CD19-CAR-dTAG were treated with 250 nM of dFKBP7 for 4 hours. The dFKBP7 was then removed from the Jurkat cells via washouts and the re-expression of CD19-CAR-dTAG was monitored by immunoblot analysis at the indicated time points.
FIG. 17A illustrates the experimental design to measure the ability to control the expression CD19-CAR-dTAG in T-cells upon addition and removal of dFKBP7. Jurkat cells engineered to express CD19-CAR-dTAG were treated with 250 nM of dFKBP7 at the indicated time points (0 and 8 hours). At 4 and 12 hours, the dFKBP7 was washed out of the Jurkat cells. At each indicated timepoint, Jurkat cells were harvest to monitor CD19-CAR-dTAG expression levels via immunoblot analysis.
FIG. 17B is an immunoblot illustrating the ability to toggle on and off expression of CD19-CAR-dTAG as described in FIG. 17A.

For test [2], the system named is indicated proteins fused to mutant FKBP*. Briefly: Immunoblot of MV4;11 leukemia cells expressing proteins fused to mutant FKBP* with an HA tag. The following applies: 16 hours, indicated concentrations.
Source text: Immunoblots of MV4; 11 leukemia cells expressing indicated proteins fused to mutant FKBP* with an HA tag.
To test the general utility of the dTAG technology across several protein types, the indicated proteins fused to the dTAG in MV4; 11 leukemia cells were expressed.

pIC50: −log10 of the molar value. Some results are limits rather than exact numbers.

T1 sequence (P62942 with tags, fused parts or gaps F37V/M50V/H95N/V99I limits assumed): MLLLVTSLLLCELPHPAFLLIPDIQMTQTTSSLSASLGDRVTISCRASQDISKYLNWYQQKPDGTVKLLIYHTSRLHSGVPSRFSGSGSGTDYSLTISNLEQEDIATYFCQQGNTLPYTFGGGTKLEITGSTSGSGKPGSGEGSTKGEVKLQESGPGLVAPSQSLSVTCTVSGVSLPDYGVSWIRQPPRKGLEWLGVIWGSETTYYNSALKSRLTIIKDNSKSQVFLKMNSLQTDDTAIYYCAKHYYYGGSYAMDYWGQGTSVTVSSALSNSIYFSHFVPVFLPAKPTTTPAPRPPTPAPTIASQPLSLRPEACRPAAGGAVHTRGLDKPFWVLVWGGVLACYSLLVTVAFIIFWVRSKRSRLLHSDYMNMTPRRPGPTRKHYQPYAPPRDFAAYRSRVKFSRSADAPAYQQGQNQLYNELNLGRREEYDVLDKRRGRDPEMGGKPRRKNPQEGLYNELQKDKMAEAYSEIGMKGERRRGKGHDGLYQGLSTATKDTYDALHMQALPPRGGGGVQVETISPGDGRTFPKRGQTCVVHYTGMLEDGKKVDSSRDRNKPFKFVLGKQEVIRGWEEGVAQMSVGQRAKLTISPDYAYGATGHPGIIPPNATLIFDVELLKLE
T1 sequence (Q96SW2 whole entry): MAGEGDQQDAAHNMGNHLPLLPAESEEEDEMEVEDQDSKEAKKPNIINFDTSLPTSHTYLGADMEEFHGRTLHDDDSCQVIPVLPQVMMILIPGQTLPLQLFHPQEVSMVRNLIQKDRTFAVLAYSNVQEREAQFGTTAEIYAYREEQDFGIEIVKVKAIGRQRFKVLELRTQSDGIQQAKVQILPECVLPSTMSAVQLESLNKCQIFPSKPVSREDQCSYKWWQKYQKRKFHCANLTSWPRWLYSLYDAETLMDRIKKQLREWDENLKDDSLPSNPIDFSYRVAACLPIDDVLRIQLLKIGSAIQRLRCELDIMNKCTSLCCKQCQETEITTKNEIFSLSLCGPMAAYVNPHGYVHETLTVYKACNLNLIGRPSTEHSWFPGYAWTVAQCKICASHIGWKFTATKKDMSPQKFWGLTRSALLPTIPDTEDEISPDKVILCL
T1 sequence (Q16531 whole entry partner): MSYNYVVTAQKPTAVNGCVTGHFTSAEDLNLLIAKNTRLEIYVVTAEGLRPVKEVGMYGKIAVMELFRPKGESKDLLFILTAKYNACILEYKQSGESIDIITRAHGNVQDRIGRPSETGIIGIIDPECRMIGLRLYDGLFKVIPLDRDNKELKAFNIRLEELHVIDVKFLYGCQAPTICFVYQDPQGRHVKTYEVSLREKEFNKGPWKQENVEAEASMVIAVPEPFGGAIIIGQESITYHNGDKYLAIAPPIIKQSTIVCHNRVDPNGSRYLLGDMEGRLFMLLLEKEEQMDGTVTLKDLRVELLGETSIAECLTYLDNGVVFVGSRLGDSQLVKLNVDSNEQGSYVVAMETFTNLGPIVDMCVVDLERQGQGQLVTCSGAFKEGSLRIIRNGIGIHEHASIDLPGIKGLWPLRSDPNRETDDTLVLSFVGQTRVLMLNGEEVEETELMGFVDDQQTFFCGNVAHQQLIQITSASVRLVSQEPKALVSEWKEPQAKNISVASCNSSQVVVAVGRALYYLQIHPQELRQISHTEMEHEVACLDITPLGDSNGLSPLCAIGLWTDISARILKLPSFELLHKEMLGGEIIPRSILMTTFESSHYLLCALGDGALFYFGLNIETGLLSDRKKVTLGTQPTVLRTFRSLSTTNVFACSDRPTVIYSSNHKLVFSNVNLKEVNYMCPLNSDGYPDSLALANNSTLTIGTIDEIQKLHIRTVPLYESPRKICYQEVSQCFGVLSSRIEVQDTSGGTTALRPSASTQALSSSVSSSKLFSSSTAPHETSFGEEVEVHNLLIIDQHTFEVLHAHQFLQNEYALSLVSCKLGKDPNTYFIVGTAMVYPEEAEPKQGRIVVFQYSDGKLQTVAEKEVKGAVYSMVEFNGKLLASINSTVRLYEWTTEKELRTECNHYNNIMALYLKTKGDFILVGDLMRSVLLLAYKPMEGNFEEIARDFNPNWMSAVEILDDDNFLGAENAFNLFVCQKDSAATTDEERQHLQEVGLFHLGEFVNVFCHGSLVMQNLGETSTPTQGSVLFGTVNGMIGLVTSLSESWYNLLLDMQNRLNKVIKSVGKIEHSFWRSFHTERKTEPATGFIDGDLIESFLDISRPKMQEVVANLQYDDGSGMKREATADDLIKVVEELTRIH

With `CC[C@H](C(=O)N1CCCC[C@H]1C(=O)O[C@H](CCc1ccc(OC)c(OC)c1)c1cccc(OCC(=O)NCCCCCCOc2cccc3c2C(=O)N(C2CCC(=O)NC2=O)C3=O)c1)c1cc(OC)c(OC)c(OC)c1` (some centres unmarked) [dFKBP13], in test [1] (NIH3T3 FKBP*-KRASG12V, 1 μM, 24 hours), the “inhibition of downstream signaling (pMEK, pAKT)” value was “inhibition of downstream signaling”. For the same compound, the negative logarithm of the IC50 (pIC50) in test [1] (NIH3T3 FKBP*-KRASG12V, indicated concentrations of dFKBP13, 24 hours, read-out: IC50, inhibits downstream signaling) is under 7.00. At CD19-CAR-dTAG (Jurkat T-cells), the “degradation of CD19-CAR-dTAG, time dependence” value is “time-dependent degradation” and the “degradation of CD19-CAR-dTAG, dose dependence” value was “dose-dependent degradation”. Besides, in test [2], the “degradation of proteins fused to dTAG (FKBP*)” value is “degradation was observed with nanomolar concentrations”.

Take `CC[C@H](C(=O)N1CCCC[C@H]1C(=O)O[C@H](CCc1ccc(OC)c(OC)c1)c1cccc(OCC(=O)NCCCOCCOCCOCCCNC(=O)COc2cccc3c2C(=O)N(C2CCC(=O)NC2=O)C3=O)c1)c1cc(OC)c(OC)c(OC)c1` (some centres unmarked) [dFKBP7]: the “downstream p-AKT signal” value in test [1] (NIH3T3 N-terminal dTAG-KRAS, 500 nM dFKBP7, indicated time) was “downstream decrease in p-AKT signal”. Besides, the “re-expression of CD19-CAR-dTAG after washout” value on CD19-CAR-dTAG (Jurkat T-cells, 250 nM dFKBP7 4 hours, then removed via washouts) is given as “protein levels recovered following removal”. Further, at CD19-CAR-dTAG (Jurkat T-cells), the “degradation of CD19-CAR-dTAG, time dependence” value is given as “time-dependent degradation” and the “degradation of CD19-CAR-dTAG, dose dependence” value is listed as “dose-dependent degradation”. Further, the “rheostat chemical control of CD19-CAR-dTAG expression” value on CD19-CAR-dTAG (Jurkat cells, 250 nM dFKBP7 at 0 and 8 hours, washed out at 4 and 12 hours) was “allows for exquisite chemical control of CD19-CAR-dTAG protein levels allowing for modulation within hours”. Moreover, the “degradation of proteins fused to dTAG (FKBP*)” value in test [2] is listed as “degradation was observed with nanomolar concentrations”.
